# Like-named read-outs stand apart in the source and are kept apart here.
# Assays:
# RAD51 [1] = biological target: T1, RAD51 (Homo sapiens, UniProt Q06609); assay: Gel-based D-loop assay; type: biochemical; details: for IC50: read-out: D-Loops IC50
# T1 sequence (Q06609 1-339): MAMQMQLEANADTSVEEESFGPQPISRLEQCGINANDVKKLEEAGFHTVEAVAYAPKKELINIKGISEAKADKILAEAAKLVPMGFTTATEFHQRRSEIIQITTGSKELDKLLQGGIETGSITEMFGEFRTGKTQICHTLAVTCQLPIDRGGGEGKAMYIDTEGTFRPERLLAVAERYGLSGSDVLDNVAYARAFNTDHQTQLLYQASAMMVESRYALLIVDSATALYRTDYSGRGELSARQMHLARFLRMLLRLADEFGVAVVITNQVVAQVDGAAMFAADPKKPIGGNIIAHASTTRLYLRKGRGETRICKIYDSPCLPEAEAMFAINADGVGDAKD
# Method: Human RAD51 in reaction buffer was combined with compound in […] DMSO, incubated at 37° C. for 10 min, and then 1 μl of 5′-^32P-labeled 90-mer ssDNA (5′-[…]) with homology to the plasmid pRS306 ^34 was added and the reaction was incubated at 37° C. for an additional 5 minutes. 1 μl of supercoiled pRS306 was then added to the reaction and incubated at 37° C. for 20 minutes; at this point the reaction consisted of 25 mM HEPES-NaOH (pH 7.0), 1 mM ATP, 1 mM MgCl2, 1 mM DTT, 1.5 μM BSA, 4.5% DMSO, 0.5 μM RAD51, 11 mM NaCl, 1% glycerol, 20 nM ssDNA, and 5 nM pRS306. The reactions were de-proteinized with 0.8% SDS and 0.8 mg/ml proteinase K, mixed with gel loading buffer, and run on a 0.9% agarose/1×TAE gel, which was dried and exposed to a phosphor screen overnight and imaged on a Storm 860 PhosphorImager. Compound IC50 values were obtained by least-squares regression fitting of appropriate linear, log, or sigmoid dose-response models to the data, with the standard error indicated.
# To improve upon the D-loop inhibitory activity, medicinal chemical studies were undertaken to optimize 8. First, different functional groups were appended to rings A and B as substituents, including alkyl groups of different sizes, electron withdrawing/donating groups, and hydrogen bond donor/acceptor groups. Next, replacement of the phenyl ring B with different heterocycles or other saturated/unsaturated rings was investigated in order to probe its role. For each of the prepared compounds, the gel-based D-loop assay and the microplate-based DNA binding assay were used to characterize the biochemical activities.
# RAD51 [2] = biological target: T1, RAD51; assay: Fluorescence polarization-based DNA binding assay (RAD51-ssDNA binding); type: biochemical; details: for Emax: read-out: ssDNA binding Max effect; for influence on RAD51-ssDNA binding, in words: summary of Tables 2 and 3
# Method: The fluorescence polarization-based DNA binding assay and purification of human RAD51 used for this assay was performed as previously described with a few modifications.^23 Reactions were carried out in black 384-well polystyrene plates. In each well, RAD51 protein was combined with reaction buffer and varying concentrations of compound in DMSO in an initial volume of 40 μl and incubated at 37° C. for 40 minutes. Then, 10 μl of reaction buffer containing fluorescently-labeled ssDNA substrate (5′-Alexa488-oligo-dT45) was added and the reaction incubated at 37° C. for another 40 minutes, after which the plate was read on a Tecan Infinite 200 Pro plate reader equipped with two sets of 485±25 nm/535±35 nm with parallel or perpendicularly-oriented polarization filters. In both steps of the reaction setup, buffer components were maintained at 20 mM HEPES-NaOH (pH 7.5), 2 mM ATP, 10 mM MgCl2, 0.1 mM TCEP-HCl (tris(2-carboxyethyl)phosphine), and 0.25 μM BSA. The final reaction contained 4% DMSO, 0.2 μM RAD51, 30 mM NaCl, 2% glycerol, and 2.22 nM ssDNA substrate. Compound IC50 values were obtained by least-squares regression fitting of appropriate linear, log, or sigmoid dose-response models to the data, with the standard error indicated. […]
# 293-DR-GFP cells = assay: DR-GFP assay, quantitation of HR efficiency in cells; type: cell-based, human; details: for inhibitory activity in the cell-based HR (DR-GFP) assay relative to 1 and 8, in words: 24-hour incubation, FIG. 5a
# Method: 293-DR-GFP cells were electroporated in Opti-MEM with 37.5 μg/ml pCBASce in 0.4 cm cuvettes at 325 V, 975 μF and seeded into 6-well plates with 2.5 ml complete DMEM+0.5% DMSO with compound and allowed to outgrow for 24 hours. Following outgrowth, cells were harvested and suspended in PBS with 1 μg/ml 7-aminoactinomycin D (7-AAD) and analyzed on a BD FACSCalibur flow cytometer. Dead and apoptotic cells were gated out based on size, shape, and 7-AAD staining and the fraction of GFP-positive cells among the population of live cells was determined.
# The DR-GFP assay was used to test the ability of representative compounds to inhibit HR in human cells.^27 Briefly, cells containing the chromosomal DR-GFP reporter were transfected with a plasmid that expresses I-SceI, a rare-cutting endonuclease that makes a DSB within the DR-GFP cassette. Compounds were added at the time of transfection and the cells were outgrown for 24 hours. For longer outgrowth periods such as 48 hours, cells regained some HR activity. To overcome this technical limitation, the relatively early time point of 24 hours was selected to describe the in vivo effects of these compounds.
# [3] = Stability on exposure to air at room temperature; type: physicochemical; details: slowly oxidized over time to compound 8
# Excerpt: These experimental results signify that compound 7 and 1 are distinct compounds. Compound 7 was not stable when exposed to air at room temperature; instead, it slowly oxidized over time to compound 8 (Scheme 2). Additionally, some of the oxidized product 8 was always produced during the preparation of compound 7.
# RAD51 foci [4] = assay: RAD51 cytological focus formation after irradiation; type: cell-based, human; details: 6 hours post-irradiation
# Method: Cells were grown on glass coverslips for two days prior to irradiation with X-rays at 1.5 Gy/min using a Philips RT250 Maxitron. Following 6 hours of outgrowth, the adherent cells were incubated in permeabilization buffer (20 mM HEPES-NaOH (pH 7.4), 50 mM NaCl, 3 mM MgCl2, 0.5% Triton X-100, 300 mM sucrose) for 10 minutes at room temperature and then fixed in ice-cold fixation buffer (3% paraformaldehyde, 3.4% sucrose in 1×PBS) for 10 minutes at room temperature. The coverslips were washed 3 times in PBS, incubated in blocking buffer (1% BSA in 1×PBS) for 30 minutes, incubated with rabbit anti-human RAD51 primary antibody (Pacific Immunology) at a 1:1000 dilution in blocking buffer for 18 hours at 4° C., washed 3 times in PBS, incubated with Alexa488-conjugated goat anti-rabbit IgG secondary antibody (Invitrogen) at a 1:1000 dilution in blocking buffer for 1 hour at room temperature, washed 3 times in PBS, air-dried, and mounted onto glass slides in Vectashield with DAPI H-1200 (Vector laboratories). Slides were viewed on a Zeiss Axio Imager.M1 epifluorescence microscope equipped with a CCD camera for acquiring images of at least 100 randomly-selected nuclei per test condition at a representative focal plane within the nuclear volume. Sub-nuclear RAD51 foci were quantified using ImageJ (NIH, Bethesda, Md.) using a custom macro set that automatically counts foci. […]
# [5] = system: PC-3, Caov-3, SKOV3.ip1, Kuramochi, U2OS cell lines; assay: Clonogenic survival of tumor cell lines after veliparib, olaparib or ionizing radiation; type: cell-based; details: administered immediately after veliparib, present during clonogenic outgrowth, FIGS. 6a-f
# Method: FIG. 6A PC-3 cell line treated with veliparib. FIG. 6B Caov-3 cell line treated with veliparib. FIG. 6C Caov-3 cell line treated with olaparib. FIG. 6D SKOV3.ip1 cell line treated with veliparib. FIG. 6E Kuramochi cell line treated with veliparib. FIG. 6F U2OS cell line treated with ionizing radiation (x-rays).
# Because 9h inhibits HR-mediated repair of DSBs, the effect of 9h on the sensitization of cancer cells to PARP inhibition or radiation damage was investigated. […] 2.
# RAD51 [6] = biological target: T1, RAD51; details: while sparing ssDNA binding activity; cited from earlier work
# RAD51 foci [7] = details: previously reported; cited from earlier work
structure (smiles),measurement,setting,value
"COc1ccc2c(c1)NC(c1ccc(N(C)C)cc1)c1cccn1-2 (centres unmarked) [Compound 7, 4-(7-Methoxy-4,5-dihydropyrrolo[1,2-a][13]quinoxalin-4-yl)-N,N-dimethylaniline]",D-Loops Max inhibition effect,RAD51 [1]; Table 1,17%
same,ssDNA binding IC50,"RAD51 [2]; Table 1, Stim = stimulator",Stim
same,Emax,"RAD51 [2]; Table 1, cells marked ↑: compound stimulates RAD51-ssDNA binding",47%
same,"inhibitory activity in the cell-based HR (DR-GFP) assay relative to 1 and 8, in words",293-DR-GFP cells,comparable
same,stability when exposed to air at room temperature,[3],not stable
"CCNc1ccc(-c2nc3ccccc3n3cccc23)cc1 [Compound 9h, N-ethyl-4-(pyrrolo[1,2-a]quinoxalin-4-yl)aniline]",D-Loops Max inhibition effect,RAD51 [1]; Table 2,91 ± 2%
same,Emax,"RAD51 [2]; Table 2, cells marked ↑: compound stimulates RAD51-ssDNA binding",2 ± 24%
same,"influence on RAD51-ssDNA binding, in words",RAD51 [2],almost no impact
same,IC50,"293-DR-GFP cells; Homo sapiens, 24 hours post-transfection, FIG. 5b, read-out: IC50, inhibition of cellular HR",0.3 ± 0.125 µM
same,inhibition of cellular HR,293-DR-GFP cells; at concentrations that did not inhibit RAD51 foci assembly,more than 90%
same,timely assembly of RAD51 into sub-nuclear foci in response to DNA damage,RAD51 foci [4],did not inhibit
same,"sensitization of cancer cell lines to veliparib, olaparib or irradiation (clonogenic survival)",[5],significantly sensitized
same,"sensitization of cancer cell lines to veliparib, olaparib or irradiation (clonogenic survival)",[5]; listed as RI(dl)-2,significantly sensitizes
"Nc1ccc(-c2nc3cc(O)ccc3n3cccc23)cc1 [Compound 12f, 4-(4-Aminophenyl)pyrrolo[1,2-a]quinoxalin-7-ol]",IC50,RAD51 [1]; Table 3,8.4 ± 3.4 µM
same,IC50,"RAD51 [2]; Table 3, Stim = stimulator",96.9 ± 44.9 µM
same,Emax,"RAD51 [2]; Table 3, cells marked ↓: compound inhibits RAD51-ssDNA binding",82 ± 23%
same,"influence on RAD51-ssDNA binding, in words",RAD51 [2],modest effects
same,"inhibitory activity in the cell-based HR (DR-GFP) assay relative to 1 and 8, in words",293-DR-GFP cells,comparable or slightly less inhibitory activity
"CN(C)c1ccc(-c2nc3cc(O)ccc3n3cccc23)cc1 [Compound 12g, 4-(4-(Dimethylamino)phenyl)pyrrolo[1,2-a]quinoxalin-7-ol]",D-Loops Max inhibition effect,RAD51 [1]; Table 3,91 ± 8%
same,IC50,RAD51 [1]; Table 3,9.8 µM
same,ssDNA binding IC50,"RAD51 [2]; Table 3, Stim = stimulator",Stim
same,Emax,"RAD51 [2]; Table 3, cells marked ↑: compound stimulates RAD51-ssDNA binding",34 ± 32%
same,"influence on RAD51-ssDNA binding, in words",RAD51 [2],only weakly influenced
same,"inhibitory activity in the cell-based HR (DR-GFP) assay relative to 1 and 8, in words",293-DR-GFP cells,comparable or slightly less inhibitory activity
"C[C@@]12CCC(=O)c3coc(c31)C(=O)c1cc3c(cc12)C(=O)C=CC3=O [Halenaquinone, halenaquinone]",inhibition of RAD51's HR activity in biochemical assays,RAD51 [6],strongly inhibit
same,formation of RAD51 foci in human cells following irradiation,RAD51 foci [7],inhibit
